Among the data in ChEMBL document CHEMBL5356986, “Research status of indole-modified natural products” (RSC Med Chem, 2023) are IC50 and MIC values, retold here.

SMILES strings stand for the structures. Values after ≈ are worked out from the molar mass of the structure shown.

The target of assay [1] is Tyrosine-protein phosphatase non-receptor type 1 (Homo sapiens, UniProt P18031). The assay is described as follows: Inhibition of Protein tyrosine phosphatase 1B (unknown origin).
Assay [2] relates to Staphylococcus aureus. Put plainly: Antibacterial activity against Staphylococcus aureus ATCC 29213 assessed as reduction in microbial growth. Type of assay: functional.
Assay [3] has as its system Escherichia coli. The assay is described as follows: Antibacterial activity against Escherichia coli assessed as reduction in bacterial growth by broth microdilution method. Type of assay: functional.
The test system of assay [4] is Acinetobacter baumannii. Put plainly: Antibacterial activity against Acinetobacter baumannii assessed as reduction in bacterial growth by broth microdilution method. It is filed as functional. In general terms: Dilution methods test growth across graded concentrations, often in twofold steps.
Assay [5] deals with Enterococcus faecalis. Put plainly: Antibacterial activity against Enterococcus faecalis assessed as reduction in bacterial growth. It is filed as functional.
Assay [6] deals with Staphylococcus aureus. Put plainly: Antibacterial activity against Staphylococcus aureus […] assessed as reduction in microbial growth. It is filed as functional.
For assay [7], the system named is Staphylococcus aureus. The assay is described as follows: Antibacterial activity against methicillin-resistant Staphylococcus aureus assessed as reduction in microbial growth. It is filed as functional.
Assay [8] concerns Leishmania donovani. The assay is described as follows: Antileishmanial activity against Leishmania donovani assessed as parasite growth inhibition. It is filed as functional, organism-based.
The nature of assay [9]: Antioxidant activity assessed as DPPH radical scavenging activity. Type of assay: functional.
Assay [10] can be described thus: Inhibition of hyaluronidase (unknown origin). The arrangement: species or system Homo sapiens.
Assay [11] deals with Bel-7402. The assay is described as follows: Cytotoxicity against human Bel-7402 cells assessed as reduction in cell viability. It is filed as functional, cell-based.
For assay [12], the system named is HCT-116. The assay is described as follows: Cytotoxicity against human HCT-116 cells assessed as reduction in cell viability by MTS assay. Type of assay: functional, cell-based. A general note: Tetrazolium dyes change colour on reduction, which living cells bring about.
Assay [13] relates to MCF7. The assay is described as follows: Cytotoxicity against human MCF7 cells assessed as reduction in cell viability by MTS assay. Type of assay: functional, cell-based.
Assay [14] has as its system MCF7. The assay is described as follows: Cytotoxicity against human MCF7 cells assessed as reduction in cell viability after 48 hrs by SRB assay. It is filed as functional, cell-based. Conditions: MCF7, 48 h. On the technique in general: Sulforhodamine B stains cellular protein and so reports cell mass.
In assay [15] the test system is A549. The assay is described as follows: Antiproliferative activity against human A549 cells assessed as reduction in cell viability by MTT assay. Type of assay: functional, cell-based.
The test system of assay [16] is Toxoplasma gondii. Put plainly: Antiparasitic activity against Toxoplasma gondii tachyzoites infected in human HeLa cells measured after 24 hrs by MTT assay. Type of assay: functional, organism-based.
Assay [17] deals with HepG2. Put plainly: Antiproliferative activity against human HepG2 cells assessed as reduction in cell viability incubated for 48 hrs by MTT assay. It is filed as functional, cell-based. Conditions: HepG2, 48 h.
Assay [18] concerns HeLa. The assay is described as follows: Cytotoxicity against human HeLa cells assessed as cell growth inhibition incubated for 24 hrs by MTT assay. It is filed as functional, cell-based.
For assay [19], the system named is MCF7. Put plainly: Antiproliferative activity against human MCF7 cells assessed as inhibition of cell growth by CCK8 assay. Type of assay: functional, cell-based.
The subject of assay [20] is HepG2. Put plainly: Cytotoxicity against human HepG2 cells by MTT assay. It is filed as functional, cell-based.
In assay [21] the test system is MDA-MB-231. The assay is described as follows: Antiproliferative activity against human MDA-MB-231 cells assessed as reduction in cell viability incubated for 48 hrs by MTT assay. It is filed as functional, cell-based. Conditions: MDA-MB-231, 48 h.
Assay [22] has as its system MDA-MB-453. The assay is described as follows: Antiproliferative activity against human MDA-MB-453 cells assessed as inhibition of cell growth incubated for 48 hrs by MTT assay. Conditions: MDA-MB-453, 48 h. It is filed as functional, cell-based.
For assay [23], the system named is A549. Put plainly: Antiproliferative activity against human A549 cells assessed as reduction in cell growth incubated for 72 hrs by MTT assay. Type of assay: functional, cell-based. Conditions: A549, 72 h.
Assay [24] relates to Arthrodermataceae. Put plainly: Antibacterial activity against Arthrodermataceae. Type of assay: functional.
Assay [25] relates to Nannizzia gypsea. The assay is described as follows: Antifungal activity against Microsporum gypseum assessed as fungal growth inhibition. It is filed as functional.
For assay [26], the system named is Trichophyton mentagrophytes. The assay is described as follows: Antifungal activity against Trichophyton mentagrophytes assessed as inhibition of microbial growth. Type of assay: functional.
Assay [27] concerns Trichophyton mentagrophytes. The assay is described as follows: Antifungal activity against Trichophyton mentagrophytes assessed as inhibition of fungal growth incubated for 48 hrs by serial plate dilution method. It is filed as functional.
In assay [28] the test system is RAW264.7. Put plainly: Anti-inflammatory activity in mouse RAW264.7 cells assessed as inhibition of LPS-induced NO production. It is filed as functional, cell-based.
Assay [29] concerns Fusarium oxysporum. The assay is described as follows: Antifungal activity against Fusarium oxysporum assessed as inhibition of fungal growth. It is filed as functional.
Assay [30] has as its system Klebsiella pneumoniae. The assay is described as follows: Antibacterial activity against Klebsiella pneumoniae assessed as reduction in bacterial growth by broth microdilution method. Type of assay: functional.
In assay [31] the test system is Candida albicans. The assay is described as follows: Antibacterial activity against Candida albicans assessed as reduction in bacterial growth. It is filed as functional.
For assay [32], the system named is Bacillus subtilis. The assay is described as follows: Antibacterial activity against Bacillus subtilis assessed as reduction in microbial growth. It is filed as functional.
Assay [33] concerns Staphylococcus aureus. Put plainly: Antibacterial activity against Staphylococcus aureus assessed as reduction in microbial growth. Type of assay: functional.
Assay [34] relates to Escherichia coli. The assay is described as follows: Antibacterial activity against Escherichia coli assessed as reduction in bacterial cell viability. It is filed as functional.
Assay [35] relates to Aspergillus niger. Put plainly: […] against Aspergillus niger assessed as […] incubated for 24 hrs by agar disc diffusion assay. Type of assay: functional.

Tyrosine-protein phosphatase non-receptor type 1, sequence (P18031 whole entry): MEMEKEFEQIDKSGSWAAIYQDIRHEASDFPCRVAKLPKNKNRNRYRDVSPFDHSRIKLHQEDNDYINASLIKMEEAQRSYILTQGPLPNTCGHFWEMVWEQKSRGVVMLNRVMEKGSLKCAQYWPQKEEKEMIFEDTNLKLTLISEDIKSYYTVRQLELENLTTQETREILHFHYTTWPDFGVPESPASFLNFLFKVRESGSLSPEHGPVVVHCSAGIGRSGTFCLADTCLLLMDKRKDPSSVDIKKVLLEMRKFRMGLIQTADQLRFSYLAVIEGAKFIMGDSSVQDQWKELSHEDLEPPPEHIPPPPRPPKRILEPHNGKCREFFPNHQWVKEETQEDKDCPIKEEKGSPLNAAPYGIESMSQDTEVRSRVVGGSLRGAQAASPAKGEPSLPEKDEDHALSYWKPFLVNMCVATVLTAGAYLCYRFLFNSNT

With `CC1(C)c2[nH]c3ccc(C(F)(F)F)cc3c2C[C@]2(C)[C@H]3C(=O)C=C4[C@@H]5C[C@@](C)(C(=O)O)CC[C@]5(C)CC[C@@]4(C)[C@]3(C)CC[C@@H]12`, the IC50 in assay [1] stood at 4.3 µM.
With `CCn1cc(C(=O)O)c(=O)c2cc(F)c(N3CCNCC3)cc21` [NORFLOXACIN], the MIC in assay [2] was 2 µg/mL; in assay [3] it was 2 µg/mL (≈ 6.26 µM); in [4], 2 µg/mL (≈ 6.26 µM); in [5], 4 µg/mL (≈ 12.5 µM); in assay [6], 4 µg/mL; in assay [7], 4 µg/mL.
Regarding `O=C(CCC(c1ccccc1)c1c[nH]c2ccccc12)c1c(O)c2ccccc2oc1=O` (centres undefined), the figures for the IC50 in [8] and in [9] were 95.5 µg/mL (≈ 226 µM) and 12.4 µM, respectively.
Regarding `CC1(C)CC[C@]2(C(=O)O)CC[C@]3(C)C(=CC[C@@H]4[C@@]5(C)Cc6c([nH]c7c(F)cc(F)cc67)C(C)(C)[C@@H]5CC[C@]43C)[C@@H]2C1`, the IC50 in assay [10] turned out to be 9.97 µM.
As for `C=C1C(=O)[C@]23[C@H](OC(=O)c4cc5cc(OC)ccc5[nH]4)[C@H]1CC[C@H]2[C@@]12COC3(O)[C@@H](O)[C@@H]1C(C)(C)CC[C@@H]2O` (single isomer, unassigned), the results for the IC50 in assay [11], in assay [12] and in [13] were 0.83 µM, 0.81 µM and 0.39 µM, respectively.
In the case of `C=C1CC[C@H]2[C@@](C)(Cc3c([nH]c4ccccc34)[C@@]2(C)COC(C)=O)[C@@H]1C/C=C1\C=COC1=O`, the IC50 in [12] worked out at 1.22 µM; in assay [13], 1.85 µM.
Take `C[C@@H]1CC[C@H]2[C@@H](C)C(OC(=O)c3cc4cc(Cl)ccc4[nH]3)O[C@@H]3O[C@@]4(C)CC[C@@H]1[C@]32OO4` (some centres undefined): the IC50 in [14] stood at 5.25 µM; in assay [15] it was 6.17 µM; in assay [16], 85.3 µM.
With `CC(C)[C@@H](C)/C=C/[C@@H](C)[C@H]1CC[C@@H]2[C@]1(C)CC[C@H]1[C@]23C=C[C@]2(C[C@@H](O)CC[C@]12C)OO3` [ERGOSTEROL PEROXIDE], the IC50 in assay [17] is 23.4 µM; in [18], 19.5 µM; in [19], 18 µM.
In assay [20], `CC(=O)Oc1ccc(C(=O)/C=C/c2ccc3c(ccn3C)c2)c2c1C=CC(C)(C)O2` showed an IC50 of 0.22 µM.
Turning to `C[C@]12CC[C@H]3[C@@H](CC=C4C[C@@H](O)CC[C@@H]43)[C@@H]1CC/C2=N\N=C\c1c[nH]c2ccccc12`, the IC50 turned out to be 0.00481 µM in [21], 1.06 µM in assay [19] and 0.01 µM in [22].
Consider `CCOc1c(Br)cc(/C=C/C(=O)c2cc3ccccc3n2C)cc1OC`, for which the IC50 in [23] was found to be 4.3 µM.
Regarding `C[C@]12CC[C@H](OC(=O)[C@H](N)c3c[nH]c4ccccc34)C[C@H]1CC[C@@H]1[C@@H]2[C@H](N)C(=O)[C@]2(C)[C@@H](c3ccc(=O)oc3)CC[C@]12O`, the IC50 in assay [21] was 0.027 µM; in assay [19] it was 11.6 µM; in assay [22], 0.0106 µM.
As for `COc1ccc(/C=C/C(=O)c2c[nH]c3ccccc23)cc1`, the MIC in [24] was 8 µg/mL (≈ 28.8 µM); in assay [25], 4 µg/mL (≈ 14.4 µM); in assay [26], 8 µg/mL.
In turn, `COc1ccc(C(=O)/C=C/c2ccc3c(ccn3C)c2)c2c1C=CC(C)(C)O2` had an IC50 in [20] of 0.82 µM.
As to `COc1cc(/C=C/C(=O)c2c[nH]c3ccccc23)cc(Br)c1OC`, the MIC in assay [27] was determined as 32 µg/mL (≈ 82.8 µM); in assay [25], 1 µg/mL (≈ 2.59 µM); in assay [26], 16 µg/mL.
With `NC(Cc1c[nH]c2ccccc12)C(=O)Oc1ccc2c(=O)c3ccccc3oc2c1` (centres undefined), the IC50 in assay [28] is 26 µg/mL (≈ 65.3 µM). For the same molecule, the MIC is 20 µg/mL (≈ 50.2 µM) in assay [29]; 22 µg/mL (≈ 55.2 µM) in [30]; 20 µg/mL (≈ 50.2 µM) in assay [31]; 16 µg/mL in [32]; 16 µg/mL in [33]; 15 µg/mL (≈ 37.6 µM) in [34]. In assay [35], the MIC was found to be 21 µg/mL (≈ 52.7 µM).

One may read the IC50 as the midpoint of a concentration-inhibition curve. The term MIC denotes the lowest concentration found to suppress growth.
